# Test results taken from US4092420A, “Novel soft N-chloroamino alcohol derivatives exhibiting antibacterial activity” (INTERx Research Corporation, priority 1977, dated 1978).
# Experiments:
# P. aeruginosa [1] = assay: Minimal inhibitory concentration (MIC), Example V; assay type: cell-based; conditions: Pseudomonas aeruginosa
# Procedure: (§1) THE ANTIBACTERIAL SCREEN - EXAMPLE V
# (§2) THE ANTIBACTERIAL SCREEN - EXAMPLES W - Z (Autotiter IV)
# (§3) (a) Compounds. All compounds to be screened are weighed (approx. 10 mg) on the day preceding the test date. Each compound is solubilized on the day of assay in appropriate solvent and diluted automatically in the Autotiter IV with distilled water (buffer can be employed here also).
# (§4) Bacteria: Staphylococcus aureas Smith (or 209), Escherichia coli AB 1932-1, 1100/B22 and Vogel, Streptococcus pyogenes C203 Salmonella typhimurium 14028, Bacillus subtilis 6051-1, Klebsiella pneumoniae 10031, Pseudomonas aeruginosa 9027, Bordetella bronchiseptica 4617 and Staphylococcus epidermidis 12228.
# (§5) (c) Inocula. Prior to utilization in the Autotiter IV, all bacteria are cultured for 18-20 hr. (37° C) in tryptose phosphate broth (TP), except, S. pyogenes C203, which is cultured in Brain Heart Infusion broth plus 10% normal horse serum. Immediately prior to testing, each culture is adjusted to an optical density of 0.10 (650 nm), employing a Bausch & Lomb Spectronic 20, and diluted subsequently into double strength medium to approximately 2 × 10^5 viable organisms per ml.
# (§6) 1. An automated injector system dispenses 0.05 ml of diluent (sterile H2 O or buffer) to all cups of the autotiter trays from rows 2 through 7.
# (§7) 2. The loops (for sequential dilutions of the compounds are moistened by immersion into 70% ethyl alcohol. After removal of excess alcohol by blotting, the loops are moved to the first row of cups in the autotray containing 0.10 ml of the compound to be diluted and tested (usually, this initial concentration is 500 to 1000 mcg/ml, but can be varied upward or downward). The loops are lowered and sequentially transfer the diluted solutions of the compound through row 7.
# (§8) Immediately after each dilution is made, each cup is automatically inoculated with 0.05 ml of the appropriate test organism. This inoculation derives from a second injector system containing the organism in double-strength medium. The total operation consists of the automatic dilution of a single compound in each of 8 rows of the Autotiter try.
# (§9) After these operations, we reverse the tray and a second compound is diluted over the other one-half of the tray and inoculated, subsequently, with 8 organisms. Thus, for each Autotiter Tray, two compounds are screened against 8 different organisms at dilutions ranging from 1:2 to 1:128.
# (§10) (e) Incubation. The inoculated Autotiter trays are incubated at 37° C for 18 - 20 hr. At the end of this period, each tray is examined for the presence or absence of growth (turbidity). The lowest concentration of the compound inhibiting growth is recorded as the minimal inhibitory concentration (MIC).
# S. aureus = assay: Minimal inhibitory concentration (MIC), Example V; assay type: cell-based; conditions: Staphylococcus aureus
# Procedure: as §1, §2, §3, §4, §5, §6, §7, §8, §9, §10
# E. coli = assay: Contact germicidal efficiency (sterilization time); assay type: cell-based, Escherichia coli; conditions: Example Y, pH 4.6, in presence of horse serum, 468 ppm (80 PPMCl+)
# Procedure: CONTACT GERMICIDAL EFFICIENCY OF
# (§11) ^a Time intervals screened 0.5, 1, 2, 3, 4 and 5 minutes.
# (§12) ^a Time intervals screened 0.5, 1, 2, 3, 4, 5, 6, 7, 8, 9 and 10
# (§13) ^a Time intervals screened 0.5, 1, 2, 3, 4, and 5 minutes.
# (§14) ^b Time intervals screened 0.5, 1, 2, 3, 4, 5, 6, 7, 8, 9 and 10
# (§15) Immediately preceding the screen, the compound is weighed and diluted with a buffer or other solvent to give the final concentration desired. The buffer or solvent chosen depends on the conditions of the screen and could be one of the following: 0.1 M NaOAc, pH 4.6; 0.1 M NaH2 PO4, pH 7.0; 0.1 M Na2 B4 O7, pH 8.8; 35% methanol in one of the aforementioned buffers; 10% Triton × 100 in buffer, etc.
# (§16) The positive chlorine concentration of the test solution is then determined iodometrically.
# Media used for the Screen are Nutrient Broth, BBL# 11479 and Nutrient Agar, BBL# 11472 prepared according to label directions. The broth is dispensed in 75 ml amounts of flasks for overnight cultures and in 5 ml amounts to culture tubes for subculturing during the Screen. Agar plates are prepared as usual. […]
# A 0.2 ml portion of the overnight culture is inoculated into 5 ml of 0.9% NaCl for use in controls. […] The earliest subculture time at which no growth is present in the subculture tube is considered the endpoint and is recorded as that time, e.g., 7 minutes. […]
# K. pneumoniae = assay: Contact germicidal efficiency (sterilization time); assay type: cell-based, Klebsiella pneumoniae
# Procedure: (§17) CONTACT GERMICIDAL EFFICIENCY OF N-CHLORAMINES AS A FUNCTION
# as §11, §12, §13, §14, §15, §16
# (§18) Media used for the Screen are Nutrient Broth, BBL# 11479 and Nutrient Agar, BBL# 11472 prepared according to label directions. The broth is dispensed in 75 ml amounts of flasks for overnight cultures and in 5 ml amounts to culture tubes for subculturing during the Screen. Agar plates are prepared as usual.
# (§19) Overnight cultures are prepared by inoculating from stock cultures into the 75 ml flasks of nutrient broth and incubating for 15 hours at 37° C.
# (§20) The iodometrically characterized test solution is dispensed in 5 ml amounts to seven small stoppered flasks. The organisms are screened one at a time as follows:
# (§21) A 0.2 ml portion of the overnight culture is inoculated into 5 ml of 0.9% NaCl for use in controls. A 0.2 ml portion of the overnight culture is inoculated into a flask containing 5 ml of the test solution, an automatic timer is simultaneously triggered and the solution mixed. At time intervals of 30 seconds, 1, 2, 3, 4, 5, 6, 7, 8, 9, and 10 minutes a loopful of the inoculated solution is subcultured into 5 ml of sterile nutrient broth and mixed by a Vortex Genie Mixer, the high dilution serving to stop the action of the compound. At the end of the ten minute screen, the entire procedure is repeated for each of the remaining six organisms. All of the subculture tubes are incubated at 37° C and checked for signs of growth by turbidity at 24 hr., 48 hr., 3, 5, and 7 days. The earliest subculture time at which no growth is present in the subculture tube is considered the endpoint and is recorded as that time, e.g., 7 minutes.
# (§22) The test solution is prepared and characterized as above but is made up at twice the concentration desired. The solution is diluted 1:1 with Rehydrated Tissue Culture Dessicated Horse Serum, Difco #5357-72 and dispensed in a 5 ml amount to a small flask. The mixture is incubated at Room Temperature for 30 minutes to allow denaturation of the compound by the serum and then screened as above.
# (§23) The 5 ml mixture of serum and test solution are prepared in sequence to allow as close to 30 minutes as possible before the beginning of the screen of each organism.
# as §4
# P. aeruginosa [2] = assay: Contact germicidal efficiency (sterilization time); assay type: cell-based, Pseudomonas aeruginosa
# Procedure: as §17, §11, §12, §13, §14, §15, §16, §18, §19, §20, §21, §22, §23, §4
# B. bronchiseptica = assay: Contact germicidal efficiency (sterilization time); assay type: cell-based, Bordetella bronchiseptica
# Procedure: as §17, §11, §12, §13, §14, §15, §16, §18, §19, §20, §21, §22, §23, §4
# [3] = Example X, pH 4.6, no horse serum, IV c 404 ppm (69 PPMCl+), IV g 489 ppm (143 PPMCl+)
# [4] = Example X, pH 7.0, no horse serum, IV c 1886 ppm (323 PPMCl+), IV g 409 ppm (120 PPMCl+)
# [5] = Example X, pH 9.3, no horse serum, IV c 1704 ppm (292 PPMCl+), IV g 319 ppm (94 PPMCl+)
# [6] = Example Y, pH 4.6, in presence of horse serum, 468 ppm (80 PPMCl+)
smiles,measurement,setting,value
"CC(C)(COC(=O)C(C)(C)C)NCl [IV c, 2-N-Chloroamino-2-methyl-1-propyl 2,2-dimethylproprionate]",MIC,P. aeruginosa [1],> 250 µg/mL
same,MIC,S. aureus,> 250 µg/mL
same,Sterilization Time,E. coli,> 10 min
same,Sterilization Time,K. pneumoniae; [3],0.5 min
same,Sterilization Time,K. pneumoniae; [4],2 min
same,Sterilization Time,K. pneumoniae; [5],2 min
same,Sterilization Time,K. pneumoniae; [6],> 10 min
same,Sterilization Time,P. aeruginosa [2]; [3],0.5 min
same,Sterilization Time,P. aeruginosa [2]; [4],1 min
same,Sterilization Time,P. aeruginosa [2]; [5],1 min
same,Sterilization Time,P. aeruginosa [2]; [6],> 10 min
same,Sterilization Time,B. bronchiseptica; [3],0.5 min
same,Sterilization Time,B. bronchiseptica; [4],1 min
same,Sterilization Time,B. bronchiseptica; [5],1 min
same,Sterilization Time,B. bronchiseptica; [6],> 10 min
